{"source": "paper PMC12042115", "about": "(mLife, 2025)", "tested_on": "wild‐type BCG cells", "assay_type": "cell-based, M. bovis BCG", "conditions": "for Mean_Ratio (GDI5755_3d vs DMSO_3d): down-regulated, 3 d; for Mean Ratio: GDI5755_2d vs DMSO_2d; for Mean Ratio / Mean Ratio (GDI5755_2d vs DMSO_2d): up-regulated; for Mean Ratio (GDI5755_2d vs DMSO_2d): 2d", "note": "Where two headings read alike, the source gives them in different places.", "data": [{"smiles": "O=C(Oc1ccc(Cl)cc1)c1ccc(N2CCOCC2)c([N+](=O)[O-])c1", "note": "[GDI‐5755]", "values": [{"measurement": "Mean_Ratio (GDI5755_3d vs DMSO_3d)", "setting": "protein A0A0H3MBJ1, BCG_2011c (Rv1994c), HTH-type transcriptional regulator CmtR", "value": 0.738}, {"measurement": "Mean Ratio", "setting": "protein A0A0H3MBK5 Phosphate-binding protein PstS3", "value": 1.29}, {"measurement": "Mean Ratio", "setting": "protein A0A0H3MBM4 NAD(P)H nitroreductase acg", "value": 1.30}, {"measurement": "Mean Ratio", "setting": "protein A0A0H3MBN2 Nuclear transport factor 2 domain-containing protein", "value": 1.27}, {"measurement": "Mean Ratio", "setting": "protein A0A0H3MBN6 Amidohydrolase 3 domain-containing protein", "value": 1.27}, {"measurement": "Mean Ratio (GDI5755_2d vs DMSO_2d)", "setting": "protein A0A0H3MBR5 Probable acetyl-/propionyl-coa carboxylase (Beta subunit) accD2", "value": 1.32}, {"measurement": "Mean Ratio", "setting": "protein A0A0H3MBT4 Probable conserved lipoprotein LppL", "value": 1.32}, {"measurement": "Mean Ratio", "setting": "protein A0A0H3MBZ9 Probable conserved transmembrane protein alanine and leucine rich", "value": 1.27}, {"measurement": "Mean_Ratio (GDI5755_3d vs DMSO_3d)", "setting": "protein A0A0H3MC34, BCG_2260 (Rv2243), Malonyl CoA-acyl carrier protein transacylase fabD", "value": 0.7}, {"measurement": "Mean_Ratio (GDI5755_3d vs DMSO_3d)", "setting": "protein A0A0H3MC70, BCG_1203c (Rv1141c), Probable enoyl-CoA hydratase echA11", "value": 0.7}, {"measurement": "Mean_Ratio (GDI5755_3d vs DMSO_3d)", "setting": "protein A0A0H3MC82, BCG_2311 (Rv2295), CbrC family protein", "value": 0.745}, {"measurement": "Mean_Ratio (GDI5755_3d vs DMSO_3d)", "setting": "protein A0A0H3MC88, BCG_2317 (Rv2301), Cutinase", "value": 0.7}, {"measurement": "Mean Ratio", "setting": "protein A0A0H3MCA1 Alpha/beta hydrolase", "value": 1.25}, {"measurement": "Mean_Ratio (GDI5755_3d vs DMSO_3d)", "setting": "protein A0A0H3MCB3, BCG_1267 (Rv1207), Dihydropteroate synthase", "value": 0.7}, {"measurement": "Mean Ratio", "setting": "protein A0A0H3MCC0 Probable tetronasin-transport atp-binding protein ABC transporter", "value": 1.26}, {"measurement": "Mean Ratio", "setting": "protein A0A0H3MCD2 Transmembrane ATP-binding protein ABC transporter", "value": 1.25}, {"measurement": "Mean_Ratio (GDI5755_3d vs DMSO_3d)", "setting": "protein A0A0H3MCL1, BCG_1383 (Rv1322), ATP/GTP-binding protein", "value": 0.7}, {"measurement": "Mean_Ratio (GDI5755_3d vs DMSO_3d)", "setting": "protein A0A0H3MCL6, BCG_2443c, AAA+ ATPase domain-containing protein", "value": 0.751}, {"measurement": "Mean Ratio", "setting": "protein A0A0H3MD23 Possible exported conserved protein", "value": 1.30}, {"measurement": "Mean_Ratio (GDI5755_3d vs DMSO_3d)", "setting": "protein A0A0H3MDI1, BCG_3731c (Rv1665), Possible chalcone synthase pks11", "value": 0.7}, {"measurement": "Mean_Ratio (GDI5755_3d vs DMSO_3d)", "setting": "protein A0A0H3MDQ0, BCG_2970c (Rv2949c), Chorismate pyruvate-lyase", "value": 0.746}, {"measurement": "Mean_Ratio (GDI5755_3d vs DMSO_3d)", "setting": "protein A0A0H3MDQ9, BCG_2994c (Rv2972c), Possible conserved membrane or exported protein", "value": 0.756}, {"measurement": "Mean Ratio (GDI5755_2d vs DMSO_2d)", "setting": "protein A0A0H3MDS7 Probable conserved lipoprotein lppZ", "value": 1.35}, {"measurement": "Mean Ratio", "setting": "protein A0A0H3ME30 Possible oxidoreductase", "value": 1.30}, {"measurement": "Mean_Ratio (GDI5755_3d vs DMSO_3d)", "setting": "protein A0A0H3ME93, BCG_1959 (Rv1920), Probable membrane protein", "value": 0.752}, {"measurement": "Mean Ratio", "setting": "protein A0A0H3MEA5 methanethiol S-methyltransferase", "value": 1.26}, {"measurement": "Mean Ratio", "setting": "protein A0A0H3MEB3 HNH nuclease domain-containing protein", "value": 1.25}, {"measurement": "Mean_Ratio (GDI5755_3d vs DMSO_3d)", "setting": "protein A0A0H3MEK1, BCG_3412 (Rv3342), Possible methyltransferase (Methylase)", "value": 0.7}, {"measurement": "Mean_Ratio (GDI5755_3d vs DMSO_3d)", "setting": "protein A0A0H3MER9, BCG_3475c (Rv3405c), HTH-type transcriptional repressor", "value": 0.758}, {"measurement": "Mean_Ratio (GDI5755_3d vs DMSO_3d)", "setting": "protein A0A0H3MEW3, BCG_3538c (Rv3473c), Possible peroxidase bpoA", "value": 0.749}, {"measurement": "Mean Ratio (GDI5755_2d vs DMSO_2d)", "setting": "protein A0A0H3MF17 Serine protease Hip1", "value": 1.35}, {"measurement": "Mean Ratio", "setting": "protein A0A0H3MF23 Possible CoA-transferase (Beta subunit)", "value": 1.25}, {"measurement": "Mean Ratio", "setting": "protein A0A0H3MF38 Glycerol-3-phosphate dehydrogenase", "value": 1.31}, {"measurement": "Mean_Ratio (GDI5755_3d vs DMSO_3d)", "setting": "protein A0A0H3MF62, BCG_2297c (Rv2282c), Probable transcription regulator (LysR family)", "value": 0.737}, {"measurement": "Mean_Ratio (GDI5755_3d vs DMSO_3d)", "setting": "protein A0A0H3MFB8, BCG_3726c, Protease", "value": 0.739}, {"measurement": "Mean Ratio", "setting": "protein A0A0H3MFJ3 Transcriptional regulatory protein (Probably arsR-family)", "value": 1.25}, {"measurement": "Mean Ratio (GDI5755_2d vs DMSO_2d)", "setting": "protein A0A0H3MFK9 DSBA-like thioredoxin domain-containing protein", "value": 1.33}, {"measurement": "Mean Ratio (GDI5755_2d vs DMSO_2d)", "setting": "protein A0A0H3MFL5 histidine kinase", "value": 1.35}, {"measurement": "Mean Ratio", "setting": "protein A0A0H3MFN8 Probable O-antigen/lipopolysaccharide transport integral membrane protein ABC transporter rfbD", "value": 1.29}, {"measurement": "Mean_Ratio (GDI5755_3d vs DMSO_3d)", "setting": "protein A0A0H3MFR0, BCG_2539c (Rv2518c), L,D-transpeptidase 2, ldtB/L,D-transpeptidase LdtMt2", "value": 0.7}, {"measurement": "Mean Ratio", "setting": "protein A0A0H3MFS0 Acyltransferase", "value": 1.28}, {"measurement": "Mean Ratio", "setting": "protein A0A0H3MFX4 Protein translocase subunit SecD", "value": 1.31}, {"measurement": "Mean_Ratio (GDI5755_3d vs DMSO_3d)", "setting": "protein A0A0H3MG15, BCG_2663 (Rv2636), O-phosphotransferase", "value": 0.7}, {"measurement": "Mean Ratio", "setting": "protein A0A0H3MG43 Probable antibiotic-transport ATP-binding protein ABC transporter", "value": 1.28}, {"measurement": "Mean Ratio", "setting": "protein A0A0H3MG65 Probable conserved transmembrane protein", "value": 1.25}, {"measurement": "Mean Ratio", "setting": "protein A0A0H3MG92 Conserved 35 kDa alanine rich protein", "value": 1.27}, {"measurement": "Mean Ratio", "setting": "protein A0A0H3MGD9 Metal-dependent hydrolase", "value": 1.32}, {"measurement": "Mean_Ratio (GDI5755_3d vs DMSO_3d)", "setting": "protein A0A0H3MGM3, BCG_2905 (Rv2884), Probable transcriptional regulatory protein", "value": 0.744}, {"measurement": "Mean Ratio", "setting": "protein A0A0H3MGP1 Probable transcriptional regulatory protein (Probably tetR-family)", "value": 1.30}, {"measurement": "Mean Ratio", "setting": "protein A0A0H3MGS1 Probable integral membrane protein", "value": 1.30}, {"measurement": "Mean_Ratio (GDI5755_3d vs DMSO_3d)", "setting": "protein A0A0H3MGU7, BCG_3025c (Rv3003c), Acetolactate synthase", "value": 0.7}, {"measurement": "Mean Ratio", "setting": "protein A0A0H3MH35 Hydroxylase", "value": 1.30}, {"measurement": "Mean_Ratio (GDI5755_3d vs DMSO_3d)", "setting": "protein A0A0H3MH58, BCG_3141 (Rv3116), PRobable molybdenum cofactor biosynthesis protein moeB2", "value": 0.7}, {"measurement": "Mean_Ratio (GDI5755_3d vs DMSO_3d)", "setting": "protein A0A0H3MH84, BCG_3167c (Rv3144c), PPE family protein", "value": 0.7}, {"measurement": "Mean_Ratio (GDI5755_3d vs DMSO_3d)", "setting": "protein A0A0H3MHH8, BCG_3287c (Rv3258c), DUF3499 domain-containing protein", "value": 0.757}, {"measurement": "Mean Ratio (GDI5755_2d vs DMSO_2d)", "setting": "protein A0A0H3MHJ0 Probable metal cation-transporting P-type atpase C ctpC", "value": 1.38}, {"measurement": "Mean_Ratio (GDI5755_3d vs DMSO_3d)", "setting": "protein A0A0H3MIJ3, BCG_3667c (Rv3603c), Conserved hypothetical alanine and leucine rich protein", "value": 0.7}, {"measurement": "Mean Ratio", "setting": "protein A0A0H3MJ41 Uncharacterized protein", "value": 1.29}, {"measurement": "Mean_Ratio (GDI5755_3d vs DMSO_3d)", "setting": "protein A1KF76, BCG_0293c (Rv0255c), Cobyric acid synthase", "value": 0.7}, {"measurement": "Mean Ratio", "setting": "protein A1KFU9 Heparin-binding hemagglutinin", "value": 1.29}, {"measurement": "Mean_Ratio (GDI5755_3d vs DMSO_3d)", "setting": "protein A1KGJ8, BCG_0767 (Rv0717), Small ribosomal subunit protein uS14B", "value": 0.746}, {"measurement": "Mean Ratio", "setting": "protein A1KHB8 Signal transduction histidine-protein kinase/phosphatase MprB", "value": 1.30}, {"measurement": "Mean_Ratio (GDI5755_3d vs DMSO_3d)", "setting": "protein A1KHH0, BCG_1089 (Rv1031), Potassium-transporting ATPase KdpC subunit", "value": 0.7}, {"measurement": "Mean Ratio", "setting": "protein A1KI12 Sec-independent protein translocase protein TatB", "value": 1.27}, {"measurement": "Mean_Ratio (GDI5755_3d vs DMSO_3d)", "setting": "protein A1KI86, BCG_1358 (Rv1298), Large ribosomal subunit protein bL31", "value": 0.7}]}]}
